From ChEMBL document CHEMBL4014333, “Discovery of Small Molecules for Repressing Cap-Independent Translation of Human Vascular Endothelial Growth Factor (hVEGF) as Novel Antitumor Agents” (J Med Chem, 2017)
Activity calls are given as the source filed them. How the calls were made is not given here. Numbered stars: 1 amine (or outer) side, 2 acyl side, 3 side chain; on linkers, the order of the positions; unused ones are H or OH. Square brackets hold non-standard residues; d marks the D form. Peptide text beside a SMILES is read from it. X1 = CN1CCC(COc2ccc3oc4c(N(CC(=O)[*:2])[*:1])c5ccccc5nc4c3c2)CC1

Key:
[1] = organism: Homo sapiens; test: Binding affinity to biotin-labeled human wild type internal ribosome entry site A RNA G-quadruplex by SPR analysis
[2] = organism: Homo sapiens; test: Binding affinity to biotin-labeled human 5'-UGAUGAGUGUGAGGAGGA-3' RNA G-quadruplex by SPR analysis
[3] = Binding affinity to biotin-labeled DNA hairpin (unknown origin) by SPR analysis

## C[n+]1c2ccccc2c(NCCCN2CCOCC2)c2oc3ccc(OCC[N+](C)(C)C)cc3c21
[1]
  Activity: Active
[2]
  Activity: Active
[3]
  Activity: Active

## COc1ccc2cc3[n+](cc2c1NCCCN1CCCC1)CCc1cc2c(cc1-3)OCO2
[1]
  Activity: Active
[2]
  Activity: Active
[3]
  Activity: Active

## CN(C)CCNc1c2ccccc2[n+](C)c2c1oc1ccc(OCCC[N+](C)(C)C)cc12
[1]
  Activity: Active
[2]
  Activity: Active
[3]
  Activity: Active

## C[n+]1c2ccccc2c(NCCN2CCCCC2)c2oc3ccc(OCC[N+]4(C)CCOCC4)cc3c21
[1]
  Activity: Active
[2]
  Activity: Active
[3]
  Activity: Active

## CCN(CC)CCCNc1c2ccccc2[n+](C)c2c1oc1ccc(OCCC[N+](C)(C)C)cc12
[1]
  Activity: Active
[2]
  Activity: Active
[3]
  Activity: Active

## C[n+]1c2ccccc2c(NCCN2CCCCC2)c2oc3ccc(OCC4CC[N+](C)(C)CC4)cc3c21
[1]
  Activity: Active
[2]
  Activity: Active
[3]
  Activity: Active

## CN(C)CCNc1c2ccccc2[n+](C)c2c1oc1ccc(OCC[N+]3(C)CCOCC3)cc12
[1]
  Activity: Active
[2]
  Activity: Active
[3]
  Activity: Active

## CCN(CC)CCCNc1c2ccccc2[n+](C)c2c1oc1ccc(OCC3CC[N+](C)(C)CC3)cc12
[1]
  Activity: Active
[2]
  Activity: Active
[3]
  Activity: Active

## CN1CCC(COc2ccc3oc4c(NCC(=O)NCC(=O)NC(CCCNC(=N)N)C(=O)NC(Cc5c[nH]cn5)C(=O)O)c5ccccc5nc4c3c2)CC1 (centres undefined)
[1]
  Activity: Active

## COc1ccc2cc3[n+](cc2c1NCCCCCCN)CCc1cc2c(cc1-3)OCO2
[1]
  Activity: Active

## C[n+]1c2ccccc2c(NCCO)c2[nH]c3ccccc3c21
[1]
  Activity: Active

## C[n+]1c2ccccc2c(NCC(=O)NC(CCCCN)C(=O)NC(CCCNC(=N)N)C(=O)O)c2oc3ccccc3c21 (centres undefined)
[1]
  Activity: Active

## CN(C)CCCNc1c2ccccc2[n+](C)c2c1[nH]c1ccccc12
[1]
  Activity: Active

## C[n+]1c2ccccc2c(NCC(=O)NC(CCCNC(=N)N)C(=O)O)c2oc3ccccc3c21 (centres undefined)
[1]
  Activity: Active

## COc1ccc2cc3[n+](cc2c1OCCCOc1ccncc1)CCc1cc2c(cc1-3)OCO2
[1]
  Activity: Active

## O=C1/C(=C\c2ccc(N3CCOCC3)cc2)CC/C1=C\c1cccnc1
[1]
  Activity: Active

## CN(C)CCCNc1c2ccccc2nc2c1oc1ccc(OCCCN(C)C)cc12
[1]
  Activity: Active

## CN1CCC(COc2ccc3oc4c(NCC(=O)NC(CCCCN)C(=O)NC(CCCNC(=N)N)C(=O)O)c5ccccc5nc4c3c2)CC1 (centres undefined)
[1]
  Activity: Active

## C[n+]1c2ccccc2c(NCCCN2CCCCC2)c2oc3ccc(OCC(=O)NCCCN4CCCCC4)cc3c21
[1]
  Activity: Active

## CN1CCC(COc2ccc3oc4c(NCC(=O)NCC(=O)NCC(=O)O)c5ccccc5nc4c3c2)CC1
[1]
  Activity: Active

## CN(C)CCCCOc1cccc2c1oc1c(NCCCN(C)C)c3ccccc3nc12
[1]
  Activity: Active

## COc1ccc2cc3[n+](cc2c1OCCC[n+]1cccc(C)c1)CCc1cc2c(cc1-3)OCO2
[1]
  Activity: Active

## CN1CCC(COc2ccc3oc4c(NCC(=O)NCC(=O)NC(CCCNC(=N)N)C(=O)NC(Cc5c[nH]cn5)C(=O)NCC(=O)O)c5ccccc5nc4c3c2)CC1 (centres undefined) (H-[X1]GRHG-OH; configuration not given here)
[1]
  Activity: Active

## CN(C)CCNc1c2ccccc2[n+](C)c2c1[nH]c1cc(F)c(F)cc12
[1]
  Activity: Active

## C[n+]1c2ccccc2c(NCC(=O)NCC(=O)NC(CCCCN)C(=O)O)c2oc3ccccc3c21 (centres undefined)
[1]
  Activity: Active

## CN1CCC(COc2ccc3oc4c(NCC(=O)NCC(=O)NC(CCCNC(=N)N)C(=O)NC(CCC(=O)O)C(=O)O)c5ccccc5nc4c3c2)CC1 (centres undefined)
[1]
  Activity: Active

## COc1ccc2cc3[n+](cc2c1OCCCn1cc[n+](C)c1)CCc1cc2c(cc1-3)OCO2
[1]
  Activity: Active

## CN1CCC(COc2ccc3oc4c(NCC(=O)NCC(=O)NC(CCCNC(=N)N)C(=O)NC(CCC(N)=O)C(=O)O)c5ccccc5nc4c3c2)CC1 (centres undefined)
[1]
  Activity: Active
